Reference: the supplement of paper PMC8671470

System: ML-2
Test: cell viability (% survival relative to DMSO control, bortezomib = 0%); higher = less cytotoxic
Conditions: 10000 nM; 72 h
How it was run: (§1)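 Reported values are percent survival from duplicate wells, averaged. Fifteen myeloid leukaemia cell lines were treated in 384-well plates with compounds at 1, 10, 100, 1000 or 10000 nM for 72 h at 37 °C in 5% CO2. Signals from CellTiter-Glo luminescence were scaled with vehicle as 100% and a 10 µM positive control as 0%.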

| Compound | cell viability [%] |
| --- | --- |
| CNC(=C[N+](=O)[O-])NCCSCc1ccc(CN(C)C)o1 [Ranitidine] | 98.9 |
| C#CCN[C@@H]1CCc2ccccc21 [Rasagiline] | 104 |
| NC(CCC(=O)NC(CSCc1ccc(Br)cc1)C(=O)NCC(=O)OC1CCCC1)C(=O)OC1CCCC1 (stereo not given) [S-para-Bromobenzylglutathione cyclopentyl diester] | 8.21 |
| COc1cc(C2Oc3cc(C4Oc5cc(O)cc(O)c5C(=O)C4O)ccc3OC2CO)ccc1O (stereo not given) [Silibinin] | 91.1 |
| Fc1ccc(CNc2ncnc3ccc(F)cc23)cc1 [Spautin 1] | 63.2 |
| Cn1c2cc(S(C)=O)sc2c2cnn(Cc3cccc(N)c3)c(=O)c21 (stereo not given) [TEPP-46] | 91.7 |
| CCCCCCCCCCCCCCOc1ccc(C(=O)O)o1 [TOFA] | 108 |
| CN1CC(=O)N2[C@H](c3ccc4c(c3)OCO4)c3[nH]c4ccccc4c3C[C@@H]2C1=O [Tadalafil] | 94.9 |

System: SHI-1
Test: as above
Conditions: 1 nM; 72 h
How it was run: as §1

| Compound | cell viability [%] |
| --- | --- |
| CC(C)(F)C[C@H](N[C@@H](c1ccc(-c2ccc(S(C)(=O)=O)cc2)cc1)C(F)(F)F)C(=O)NC1(C#N)CC1 [Odanacatib] | 109 |
| Nc1nc(O)c2c(CCc3ccc(C(=O)N[C@@H](CCC(=O)O)C(=O)O)cc3)c[nH]c2n1 [Pemetrexed] | 99.2 |
| C=C1NC(=O)c2cc(CN(C)c3ccc(C(=O)N[C@@H](CCC(=O)O)C(=O)O)s3)ccc2N1 [Raltitrexed] | 106 |
| CNC(=C[N+](=O)[O-])NCCSCc1ccc(CN(C)C)o1 [Ranitidine] | 98.6 |
| C#CCN[C@@H]1CCc2ccccc21 [Rasagiline] | 97.8 |
| NC(CCC(=O)NC(CSCc1ccc(Br)cc1)C(=O)NCC(=O)OC1CCCC1)C(=O)OC1CCCC1 (stereo not given) [S-para-Bromobenzylglutathione cyclopentyl diester] | 98.2 |
| COc1cc(C2Oc3cc(C4Oc5cc(O)cc(O)c5C(=O)C4O)ccc3OC2CO)ccc1O (stereo not given) [Silibinin] | 102 |
| Fc1ccc(CNc2ncnc3ccc(F)cc23)cc1 [Spautin 1] | 113 |
| Cn1c2cc(S(C)=O)sc2c2cnn(Cc3cccc(N)c3)c(=O)c21 (stereo not given) [TEPP-46] | 125 |
| CCCCCCCCCCCCCCOc1ccc(C(=O)O)o1 [TOFA] | 113 |
| CN1CC(=O)N2[C@H](c3ccc4c(c3)OCO4)c3[nH]c4ccccc4c3C[C@@H]2C1=O [Tadalafil] | 109 |

Same assay, conditions: 10 nM; 72 h

| Compound | cell viability [%] |
| --- | --- |
| CC(C)(F)C[C@H](N[C@@H](c1ccc(-c2ccc(S(C)(=O)=O)cc2)cc1)C(F)(F)F)C(=O)NC1(C#N)CC1 [Odanacatib] | 107 |
| Nc1nc(O)c2c(CCc3ccc(C(=O)N[C@@H](CCC(=O)O)C(=O)O)cc3)c[nH]c2n1 [Pemetrexed] | 102 |
| C=C1NC(=O)c2cc(CN(C)c3ccc(C(=O)N[C@@H](CCC(=O)O)C(=O)O)s3)ccc2N1 [Raltitrexed] | 118 |
| CNC(=C[N+](=O)[O-])NCCSCc1ccc(CN(C)C)o1 [Ranitidine] | 107 |
| C#CCN[C@@H]1CCc2ccccc21 [Rasagiline] | 103 |
| NC(CCC(=O)NC(CSCc1ccc(Br)cc1)C(=O)NCC(=O)OC1CCCC1)C(=O)OC1CCCC1 (stereo not given) [S-para-Bromobenzylglutathione cyclopentyl diester] | 109 |
| COc1cc(C2Oc3cc(C4Oc5cc(O)cc(O)c5C(=O)C4O)ccc3OC2CO)ccc1O (stereo not given) [Silibinin] | 107 |
| Fc1ccc(CNc2ncnc3ccc(F)cc23)cc1 [Spautin 1] | 100 |
| Cn1c2cc(S(C)=O)sc2c2cnn(Cc3cccc(N)c3)c(=O)c21 (stereo not given) [TEPP-46] | 101 |
| CCCCCCCCCCCCCCOc1ccc(C(=O)O)o1 [TOFA] | 85.6 |
| CN1CC(=O)N2[C@H](c3ccc4c(c3)OCO4)c3[nH]c4ccccc4c3C[C@@H]2C1=O [Tadalafil] | 102 |

Same assay, conditions: 100 nM; 72 h

| Compound | cell viability [%] |
| --- | --- |
| CC(C)(F)C[C@H](N[C@@H](c1ccc(-c2ccc(S(C)(=O)=O)cc2)cc1)C(F)(F)F)C(=O)NC1(C#N)CC1 [Odanacatib] | 99.9 |
| Nc1nc(O)c2c(CCc3ccc(C(=O)N[C@@H](CCC(=O)O)C(=O)O)cc3)c[nH]c2n1 [Pemetrexed] | 106 |
| C=C1NC(=O)c2cc(CN(C)c3ccc(C(=O)N[C@@H](CCC(=O)O)C(=O)O)s3)ccc2N1 [Raltitrexed] | 99.8 |
| CNC(=C[N+](=O)[O-])NCCSCc1ccc(CN(C)C)o1 [Ranitidine] | 96.4 |
| C#CCN[C@@H]1CCc2ccccc21 [Rasagiline] | 100 |
| NC(CCC(=O)NC(CSCc1ccc(Br)cc1)C(=O)NCC(=O)OC1CCCC1)C(=O)OC1CCCC1 (stereo not given) [S-para-Bromobenzylglutathione cyclopentyl diester] | 98.5 |
| COc1cc(C2Oc3cc(C4Oc5cc(O)cc(O)c5C(=O)C4O)ccc3OC2CO)ccc1O (stereo not given) [Silibinin] | 89.3 |
| Fc1ccc(CNc2ncnc3ccc(F)cc23)cc1 [Spautin 1] | 106 |
| Cn1c2cc(S(C)=O)sc2c2cnn(Cc3cccc(N)c3)c(=O)c21 (stereo not given) [TEPP-46] | 105 |
| CCCCCCCCCCCCCCOc1ccc(C(=O)O)o1 [TOFA] | 110 |
| CN1CC(=O)N2[C@H](c3ccc4c(c3)OCO4)c3[nH]c4ccccc4c3C[C@@H]2C1=O [Tadalafil] | 98.9 |

Same assay, conditions: 1000 nM; 72 h

| Compound | cell viability [%] |
| --- | --- |
| CC(C)(F)C[C@H](N[C@@H](c1ccc(-c2ccc(S(C)(=O)=O)cc2)cc1)C(F)(F)F)C(=O)NC1(C#N)CC1 [Odanacatib] | 98.5 |
| Nc1nc(O)c2c(CCc3ccc(C(=O)N[C@@H](CCC(=O)O)C(=O)O)cc3)c[nH]c2n1 [Pemetrexed] | 68 |
| C=C1NC(=O)c2cc(CN(C)c3ccc(C(=O)N[C@@H](CCC(=O)O)C(=O)O)s3)ccc2N1 [Raltitrexed] | 38.4 |
| CNC(=C[N+](=O)[O-])NCCSCc1ccc(CN(C)C)o1 [Ranitidine] | 122 |
| C#CCN[C@@H]1CCc2ccccc21 [Rasagiline] | 95.3 |
| NC(CCC(=O)NC(CSCc1ccc(Br)cc1)C(=O)NCC(=O)OC1CCCC1)C(=O)OC1CCCC1 (stereo not given) [S-para-Bromobenzylglutathione cyclopentyl diester] | 91.3 |
| COc1cc(C2Oc3cc(C4Oc5cc(O)cc(O)c5C(=O)C4O)ccc3OC2CO)ccc1O (stereo not given) [Silibinin] | 98.6 |
| Fc1ccc(CNc2ncnc3ccc(F)cc23)cc1 [Spautin 1] | 95.9 |
| Cn1c2cc(S(C)=O)sc2c2cnn(Cc3cccc(N)c3)c(=O)c21 (stereo not given) [TEPP-46] | 96.5 |
| CCCCCCCCCCCCCCOc1ccc(C(=O)O)o1 [TOFA] | 98.9 |
| CN1CC(=O)N2[C@H](c3ccc4c(c3)OCO4)c3[nH]c4ccccc4c3C[C@@H]2C1=O [Tadalafil] | 97.8 |

Same assay, conditions: 10000 nM; 72 h

| Compound | cell viability [%] |
| --- | --- |
| CC(C)(F)C[C@H](N[C@@H](c1ccc(-c2ccc(S(C)(=O)=O)cc2)cc1)C(F)(F)F)C(=O)NC1(C#N)CC1 [Odanacatib] | 117 |
| Nc1nc(O)c2c(CCc3ccc(C(=O)N[C@@H](CCC(=O)O)C(=O)O)cc3)c[nH]c2n1 [Pemetrexed] | 43.4 |
| C=C1NC(=O)c2cc(CN(C)c3ccc(C(=O)N[C@@H](CCC(=O)O)C(=O)O)s3)ccc2N1 [Raltitrexed] | 43.3 |
| CNC(=C[N+](=O)[O-])NCCSCc1ccc(CN(C)C)o1 [Ranitidine] | 104 |
| C#CCN[C@@H]1CCc2ccccc21 [Rasagiline] | 117 |
| NC(CCC(=O)NC(CSCc1ccc(Br)cc1)C(=O)NCC(=O)OC1CCCC1)C(=O)OC1CCCC1 (stereo not given) [S-para-Bromobenzylglutathione cyclopentyl diester] | 99.9 |
| COc1cc(C2Oc3cc(C4Oc5cc(O)cc(O)c5C(=O)C4O)ccc3OC2CO)ccc1O (stereo not given) [Silibinin] | 105 |
| Fc1ccc(CNc2ncnc3ccc(F)cc23)cc1 [Spautin 1] | 62.2 |
| Cn1c2cc(S(C)=O)sc2c2cnn(Cc3cccc(N)c3)c(=O)c21 (stereo not given) [TEPP-46] | 95.3 |
| CCCCCCCCCCCCCCOc1ccc(C(=O)O)o1 [TOFA] | 89.9 |
| CN1CC(=O)N2[C@H](c3ccc4c(c3)OCO4)c3[nH]c4ccccc4c3C[C@@H]2C1=O [Tadalafil] | 88.3 |

System: THP-1
Test: as above
Conditions: 1 nM; 72 h
How it was run: as §1

| Compound | cell viability [%] |
| --- | --- |
| CC(C)(F)C[C@H](N[C@@H](c1ccc(-c2ccc(S(C)(=O)=O)cc2)cc1)C(F)(F)F)C(=O)NC1(C#N)CC1 [Odanacatib] | 99.2 |
| Nc1nc(O)c2c(CCc3ccc(C(=O)N[C@@H](CCC(=O)O)C(=O)O)cc3)c[nH]c2n1 [Pemetrexed] | 85 |
